The results in this text go back to PubChem BioAssay (NCI).

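Growth conditions: 96-well plates. Treatment: test compound, 48 hours, 5 concentrations. Analysis: linear interpolation between bracketing concentrations; unreached endpoints set to highest concentration. GI50 is the concentration that inhibits growth by half. At the TGI there is no net growth.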

Common to all, as to experiment: inhibition of tumour cell growth, NCI panel, 48 h
For assay [1], the system named is EKVX NSCLC.
Assay [2] concerns HCC-2998 colon.
Assay [3] relates to MOLT-4 leukemia.
The test system of assay [4] is NCI-H226 lung.
The subject of assay [5] is SF-268 CNS.
Assay [6] deals with SF-295 CNS.
In assay [7] the test system is SK-MEL-5 melanoma.
Assay [8] concerns U251 CNS.
The test system of assay [9] is UACC-257 melanoma.
The test system of assay [10] is UACC-62 melanoma.

On to `O=C(Nc1ccc(I)cc1F)c1cc(F)ccc1O`, for which the GI50 in assay [1] is 1.4 µM; in [2] it was 3.1 µM; in assay [3], 0.611 µM; in [4], 0.985 µM; in assay [5] it was 0.513 µM; in assay [6] it was 1.86 µM. The GI50 in [7] is 0.229 µM; in assay [8], 0.578 µM; in assay [9], 0.392 µM; in assay [10], 0.259 µM. For the same compound, the TGI is 9.01 µM in [1]; 26.4 µM in [2]; 2.59 µM in assay [3]; 5.66 µM in assay [4]; greater than 31.1 µM in assay [5]; 3.74 µM in assay [6]. The TGI is 0.556 µM in [7], greater than 100 µM in assay [8], 2.89 µM in [9] and 0.853 µM in [10].
Regarding `CCn1c(-c2nonc2N)nc2c(C#CC(C)(C)O)ncc(OCC3CCNCC3)c21`, the GI50 in [1] was greater than 25 µM; in assay [2] it was 11.4 µM; in assay [3], 8.3 µM; in assay [4] it was greater than 15.2 µM; in [5], 9.41 µM; in assay [6] it was 5.29 µM. The GI50 in assay [7] is 8.87 µM; in [8] it was 3.99 µM; in assay [9], greater than 20.7 µM; in [10] it was 8.02 µM. Further, the TGI in assay [1], in assay [2], in assay [3], in assay [4], in assay [5] and in assay [6] was greater than 25 µM in each case. In addition, the TGI in assay [7] is greater than 21.2 µM; in assay [8], greater than 25 µM; in [9] it was greater than 25 µM; in [10], greater than 25 µM.
With `C/C(CC(=O)Nc1cc(Cl)c(Cl)cc1Cl)=N\NS(=O)(=O)c1ccc(C)cc1`, the TGI in assay [1] is greater than 100 µM; in assay [2] it was 86.5 µM; in [3] it was greater than 100 µM; in assay [4], 53 µM; in assay [5], greater than 100 µM; in [6], greater than 100 µM. For the same compound, the TGI is greater than 100 µM in assay [7], greater than 100 µM in [8], greater than 100 µM in [9] and 75.9 µM in assay [10].
Consider `COC(=O)CCCCCCCCC(=O)c1c(C)[nH]c(/C=C2\N=C(c3ccc[nH]3)C=C2OC)c1C`, for which the GI50 is greater than 100 µM in assay [1]; greater than 26.9 µM in [2]; 0.755 µM in [3]; 8.72 µM in assay [4]; greater than 20.6 µM in [5]; greater than 58.8 µM in assay [6]. Also, the GI50 in assay [7] is 1.97 µM; in assay [8] it was 10.9 µM; in assay [9], 14.4 µM; in [10], 10.7 µM. Also, the TGI in assay [1] was greater than 100 µM; in assay [2], greater than 100 µM; in [3], greater than 43.6 µM; in assay [4], greater than 100 µM; in [5], greater than 100 µM; in assay [6], greater than 100 µM. The TGI in assay [7] was 5.67 µM; in assay [8], greater than 100 µM; in assay [9], 87.8 µM; in assay [10] it was greater than 82.9 µM.
On to `CCCCOc1nc2ccccc2cc1C1CNC(=O)c2ccccc2N1` (stereo not given), for which the GI50 in assay [1] was 5.15 µM; in [2], 3.68 µM; in assay [3], 2.95 µM; in assay [4], 4.82 µM; in [5], 4.24 µM; in [6], 1.63 µM. The GI50 in [7] is 2.79 µM; in assay [8] it was 3.35 µM; in [9], 8.16 µM; in [10] it was 1.95 µM. Moreover, the TGI in [1] is 63 µM; in [2], 21.5 µM; in [3], 13.5 µM; in [4] it was 19.2 µM; in [5], greater than 48.5 µM; in assay [6], 8.49 µM. In addition, the TGI in [7] was 18.4 µM; in assay [8], 14.2 µM; in assay [9] it was greater than 100 µM; in assay [10], 12.3 µM.
Consider `CCOC(=O)Nc1ccc2nc(Sc3ccc(Cl)cc3)sc2c1`, for which the GI50 in assay [1] was 8.28 µM; in assay [2] it was 15.3 µM; in [3], 4.2 µM; in assay [4] it was 7.9 µM; in assay [5], 8.66 µM; in assay [6], 2.19 µM. Further, the GI50 in assay [7] is 1.18 µM; in [8], 3.15 µM; in [9] it was 9.87 µM; in assay [10], 1.6 µM. Besides, the TGI was greater than 82.6 µM in [1]; greater than 71.4 µM in assay [2]; greater than 87.6 µM in assay [3]; 76.3 µM in assay [4]; greater than 100 µM in [5]; 33.9 µM in [6]. For the same compound, the TGI worked out at 5.07 µM in [7], 44.6 µM in [8], 45.2 µM in assay [9] and 48.3 µM in assay [10].
Take `Fc1ccc(-c2ncn(C3CCNCC3)c2-c2ccnc(Oc3ccc(Oc4ccccc4)cc3)n2)cc1`: the GI50 was 3.87 µM in assay [1]; 3.15 µM in assay [2]; 3.31 µM in assay [3]; 3.6 µM in [4]; 3.94 µM in [5]; 4.52 µM in assay [6]. The GI50 in assay [7] was 3.55 µM; in assay [8], 3.56 µM; in assay [9], 4.71 µM; in assay [10], 4.29 µM. Moreover, the TGI in assay [1] is 7.74 µM; in assay [2], 6.69 µM; in [3], 7.59 µM; in [4], 7.53 µM; in assay [5], 7.71 µM; in assay [6], 8.84 µM. Besides, the TGI in assay [7] was determined as 6.82 µM; in assay [8], 7.18 µM; in assay [9] it was 8.54 µM; in assay [10], 7.78 µM.
For the compound `O=C(Nc1ccc(Oc2cccc(Cl)c2)c(Cl)c1)c1cccnc1`, the GI50 was 3.62 µM in assay [1]; 5.62 µM in [2]; 2.86 µM in assay [3]; 2.16 µM in assay [4]; 3.71 µM in assay [5]; 1.33 µM in [6]. Moreover, the GI50 in assay [7] is 1.78 µM; in [8], 2.23 µM; in assay [9], 5.1 µM; in assay [10] it was 3.89 µM. For the same compound, the TGI in [1] is greater than 50 µM; in assay [2], 15.7 µM; in assay [3] it was greater than 50 µM; in assay [4], 32 µM; in assay [5], 46.6 µM; in assay [6] it was 16 µM. The TGI was 6.92 µM in [7], 18 µM in assay [8], 27 µM in [9] and greater than 50 µM in assay [10].
